Several values for one entry are separate records, joined by “and”; a condition that tells them apart may be missing. Identical values can stand only once. Entries after “also recorded” stand apart in the source; their conditions may differ.
Tests used:
[1] = tested on: HIV-1 RT mutant resistance test vector A62V+T69SSA; assay: Phenotypic susceptibility assay, site directed RTV A62V+T69SSA; assay type: cell-based; settings: for Average fold reduction in susceptibility: RTV with 62 + 69 (A62V+T69SSA), 4 replicates; for effect on susceptibility (words): RTV with A62V+T69SSA, compared with T69SSA alone
Procedure: (§1) Resistance tests were carried out with resistance test vectors using two host cell types. Resistance test vector viral particles were produced by a first host cell (the resistance test vector host cell) that was prepared by transfecting a packaging host cell with the resistance test vector and the packaging expression vector. The resistance test vector viral particles were then used to infect a second host cell (the target host cell) in which the expression of the indicator gene is measured.
(§2) The resistance test vectors containing a functional luciferase gene cassette were constructed and host cells were transfected with the resistance test vector DNA. The resistant test vectors contained patient-derived reverse transcriptase and protease sequences that were either susceptible or resistant to the antiretroviral agents, such as nucleoside reverse transcriptase inhibitors, non-nucleoside reverse transcriptase inhibitors and protease inhibitors. The resistance test vector viral particles produced by transfecting the resistance test vector DNA into host cells, either in the presence or absence of protease inhibitors, were used to infect target host cells grown either in the absence of NRTI or NNRTI or In the presence of increasing concentrations of the drug. The amount of luciferase activIty produced in infected target host cells in the presence of drug was compared to the amount of luciferase produced in infected target host cells in the absence of drug. Drug resistance was measured as the amount of drug required to inhibit by 50% the luciferase activity detected in the absence of drug (Inhibitory concentration 50%, IC50). The IC50 values were determined by plotting percent drug inhibition vs. log 10 drug concentration.
(§3) Host cells were seeded in 10-cm-diameter dishes and were transfected several days after plating with resistance test vector plasmid DNA and the envelope expression vector. Transfections were performed using a calcium-phosphate precipitation procedure. The cell culture media containing the DNA precipitate was replaced with fresh medium, from one to 24 hours, after transfection. Cell culture media containing resistance test vector viral particles was harvested one to four days after transfection and was passed through a […] filter before being stored at −80° C. HIV capsid protein (p24) levels in the harvested cell culture media were determined by an EIA method as described by the manufacturer (SIAC; Frederick, Md.). Before infection, target cells (293 and 293/T) were plated in cell culture media. Control infections were performed using cell culture media from mock transfections (no DNA) or transfections containing the resistance test vector plasmid DNA without the envelope expression plasmid. One to three or more days after infectIon the media was removed and cell lysis buffer (Promega) was added to each well. Cell lysates were assayed for luciferase activity (FIG. 3). The inhibitory effect of the drug was determined using the following equation:
(§4) % luciferase inhibition=1−(RLUluc[drug]÷RLUluc)×100
(§5) where RLUluc [drug] is the relative light unit of luciferase activity in infected cells in the presence of drug and RLUluc is the Relative Light Unit of luciferase activity in infected cells in the absence of drug. IC50 values were obtained from the sigmoidal curves that were generated from the data by plotting the percent inhibition of luciferase activity vs. the log 10 drug concentration. The drug inhibition curves are shown in (FIG. 3).
(§6) Genotypic changes that are observed to correlate with changes in phenotypic patterns of drug susceptibility are evaluated by construction of resistance test vectors containing the specific mutation on a defined, wild-type (drug susceptible) genetic background. Mutations may be incorporated alone and/or in combination with other known drug resistance mutations that are thought to modulate the susceptibility of HIV to a certain drug or class of drugs. […]

[2] = tested on: HIV-1 RT mutant resistance test vector A62V+T69SSA+V75I; assay: Phenotypic susceptibility assay, site directed RTV A62V+T69SSA+V75I; assay type: cell-based; settings: for Average fold reduction in susceptibility: RTV with 62 + 69 + 751 (A62V, T69SSA, V75I), 1 replicate; for effect on susceptibility (words): RTV with A62V+T69SSA+V75I
Procedure: as §1, §2, §3, §4, §5, §6

[3] = tested on: HIV-1 RT mutant resistance test vector M41L-A62V-T69SSA-T215Y-RTV; assay: Phenotypic susceptibility assay, site directed RTV M41L+A62V+T69SSA+T215Y; assay type: cell-based; settings: RTV with M41L+A62V+T69SSA+T215Y; addition of A62V to M41L+T69SSA+T215Y
Procedure: as §1, §2
as §3, with “Cell lysates were assayed for luciferase activity (FIG. 3).” left out
as §4
as §5, with “concentration.” for “concentration. The drug inhibition curves are shown in (FIG. 3).”
Mutations may be incorporated alone and/or in combination with other known drug resistance mutations that are thought to modulate the susceptibility of HIV to a certain drug or class of drugs. Mutations are introduced into the resistance test vector through any of the widely known methods for site-directed mutagenesis. In one embodiment of this invention the mega-primer PCR method for site-directed mutagenesis is used.

[4] = tested on: HIV-1 RT mutant resistance test vector 41 + 210 + 215; assay: Phenotypic susceptibility assay, site directed RTV 41 + 210 + 215; assay type: cell-based; settings: RTV with 41 + 210 + 215; 3 replicates
Procedure: as §1, §2, §3, §4, §5, §6

[5] = tested on: HIV-1 RT mutant resistance test vector M41L+A62V+T69SSA+M184V+T215Y; assay: Phenotypic susceptibility assay, site directed RTV M41L+A62V+T69SSA+M184V+T215Y; assay type: cell-based; settings: for Average fold reduction in susceptibility: RTV with 41 + 62 + 69 + 184 + 215, 2 replicates; for effect on susceptibility (words): RTV with M41L+A62V+T69SSA+M184V+T215Y, addition of M184V to the 4 mutations
Procedure: as §1, §2, §3, §4, §5, §6

[6] = tested on: HIV with RT Met184→Val mutation; settings: Met184→Val (M184V); cited from earlier work
[7] = tested on: HIV with RT Val75→Thr mutation; settings: cited from earlier work

| Compound | Average fold reduction in susceptibility [1] | effect on susceptibility (words) [1] | Average fold reduction in susceptibility [2] | effect on susceptibility (words) [2] | effect on susceptibility (words) [3] | Average fold reduction in susceptibility [4] [fold] | Average fold reduction in susceptibility [5] [fold] | effect on susceptibility (words) [5] | fold increase in IC50 / reduction in susceptibility [6] | susceptibility [7] | fold increase in IC50 [7] |
| --- | --- | --- | --- | --- | --- | --- | --- | --- | --- | --- | --- |
| Cc1cn([C@H]2C[C@H](N=[N+]=[N-])[C@@H](CO)O2)c(=O)[nH]c1=O [AZT, zidovudine] | 6 fold and 7 fold and approximately six-fold and 6.87 fold | further reduce AZT susceptibility | 2 fold and 0.71 fold | completely suppressed the reduced AZT susceptibility; also recorded: completely suppressed the six-fold AZT resistance | reduced AZT susceptibility more than the combination of M41L and T215Y mutations alone; also recorded: further reduction in susceptibility | 56.14 | 43.86 | increase in the susceptibility to AZT; also recorded: suppressed the reduced AZT susceptibility; also recorded: more susceptible |  |  |  |
| Nc1ccn([C@H]2CC[C@@H](CO)O2)c(=O)n1 [ddC, zalcitabine] | 1.74 fold |  | 1.89 fold |  | no effect on susceptibility | 1.36 | 2.90 | no effect on susceptibility to ddC or abacavir | four-fold to eight-fold | reduced susceptibility to both ddI and ddC |  |
| Cc1cn([C@H]2C=C[C@@H](CO)O2)c(=O)[nH]c1=O [d4T, stavudine] | 1.66 fold | no effect on the susceptibility to d4T; also recorded: did not reduce d4T susceptibility more than the T69SSA mutation alone | 1.40 fold | did not reduce d4T susceptibility more than the T69SSA mutation alone | did reduce d4T susceptibility more than the T69SSA mutation alone; also recorded: further reduction in susceptibility | 1.94 | 3.98 | no effect on the susceptibility to d4T; also recorded: did reduce d4T susceptibility more than the T69SSA mutation alone; also recorded: more susceptible |  |  | seven-fold |
| O=c1[nH]cnc2c1ncn2[C@H]1CC[C@@H](CO)O1 [ddI, didanosine] | 1.54 fold |  | 1.17 fold |  | further reduction in susceptibility | 1.08 | 2.55 | more susceptible | four-fold to eight-fold | reduced susceptibility to both ddI and ddC |  |
| Nc1nc(NC2CC2)c2ncn([C@H]3C=C[C@@H](CO)C3)c2n1 [ABC, abacavir] | 2.71 fold |  | 2.56 fold |  | no effect on susceptibility | 2.25 | 11.73 | no effect on susceptibility to ddC or abacavir | 2-5 fold |  |  |

Source: patent US6489098B1, “Means and methods for monitoring nucleoside reverse transcriptase inhibitor antiretroviral therapy and guiding therapeutic decisions in the treatment of HIV/AIDS” (ViroLogic, Inc., priority 1998, dated 2002)
